In patent US6803479B2, “Reagents and method for spatio-temporal control of gene expression by illumination” (University of Maryland Biotechnology Institute, priority 2001, dated 2004):
≈ marks a conversion by molar mass, not a printed value. Entries after “also recorded” stand apart in the source; their conditions may differ.

Columns and labels:
ecdysone receptor [1] = conditions: cited from earlier work
ecdysone receptor [2] = assay: Activation of the ecdysone-regulable gene expression system; format: cell-based, D. melanogaster
Description: The ecydysone-regulable gene expression system relies on a recombinant ecdysone receptor (VgEcR), which is an N-terminal truncation of the natural ecdysone receptor from D. melanogaster fused to the activation domain of VP16 from HSV; VgEcR also bears 3 point mutations in the P box of the DNA-binding domain of EcR to resemble that of the glucocorticoid receptor (GR) to allow recognition of a synthetic ecdysone-response element (E/GRE), which consists of inverted half-site recognition elements for the retinoid X receptor (RXR) and GR DNA-binding domains. The hybrid E/GRE sequence is designed to evade recognition by any endogenous nuclear receptors. With RXR, the vertebrate homologue of Drosophila ultraspiracle (Yao et al. 1992), VgEcR forms a heterodimer that binds to E/GRE and initiates transcription. The ecdysone-inducible expression system has very low basal expression (No et al. 1996), because the presence of ecdysoid hormones is obligatory for receptor heterodimerization and DNA binding (Yao et al. 1993). Finally, ecdysoid hormones have no known corresponding bioactivity in vertebrates, presumably because there are no processes homologous to molting.
That these ecdysone analogues are steroids presents the same chemical obstacle to caging as did mifepristone. Fortunately, however, members of the bisacylhydrazine family are potent activators of the ecdysone receptor, and they are accessible by facile organic synthetic routes. As shown in Preliminary Studies, we have successfully synthesized a non-steroidal ecdysoid (NSE) from this class of compounds. […] Furthermore, because non-steroidal mimics of ecdysoid molting hormone have been of great interest to the agrichemical business, the acute toxicity, mutagenicity, carcinogenicity, and teratogenicity of the bisacylhydrazine family of NSEs have been extensively tested since the compounds were serendipitously discovered as ecdysone mimetics in 1983 (see Dhadialla et al. 1998 and references therein).

mice = assay: Toxicity in animals (intraperitoneal injections); format: in vivo; conditions: 8 mice, 32.5 mg/ml suspension, six 200-μl aliquots at 12-hour intervals
Experimental: NSE-1 was suspended (32.5 mg/ml) in carrier vehicle consisting of 15% w/v Pluronic F127 surfactant (BASF Corp., Wyandotte, Mich.) and 3% v/v dimethylsulfoxide in phosphate buffered saline (PBS, pH 7). […] These observations give at least preliminary data showing that NSE-1 is not acutely toxic to mammals.
NSE-1 was suspended (32.5 mg/ml) in vehicle consisting of 15% w/v Pluronic F127 surfactant (BASF Corp., Wyandotte, Mich.) and 3% v/v dimethylsulfoxide in phosphate buffered saline (PBS, pH 7).

Aqueous solubility = format: physicochemical; conditions: aqueous KCl/HEPES buffer, 100 mM KCl, 10 mM K · HEPES, pH 7.4
[3] = tested on: EGFP reporter gene under ecdysone promoter control in NIH3T3-ER cells; assay: Induction of reporter gene expression in transiently-transfected cells; format: cell-based; conditions: 30 μM, 48 hours, single-cell microfluorimetry, NIH3T3-ER cells with pEGSH-EGFP
Experimental: NIH3T3-ER cells were transiently transfected with a plasmid pEGSH-GFP carrying the reporter eGFP gene under ecdysone promoter control. The transfected cells were treated with 10 μM ponasterone A, or 30 μM NSE-1, or plain medium for 48 hours and then screened for induction of eGFP expression by single-cell microfluorimetry.
NIH3T3-ER cells, in which expression of a modified ecdysone receptor and the retinoid X co-receptor are driven by the CMV promoter, were transiently transfected with the pEGSH-EGFP plasmid using FuGene 6 transfection reagent. The transfected cells were treated with 30 μM NSE-1 or vehicle for 48 hours and then screened for induction of EGFP expression by single-cell microfluorimetry.

NIH3T3-ER fibroblasts = assay: Toxicity in cell culture (CyQuant DNA quantification); format: cell-based; conditions: 48 hours
Experimental: Cellular toxicity of NSE-1 was tested in cell culture. NIH3T3-ER fibroblasts (Stratagene, La Jolla, Calif.) were seeded into 96-well plates, allowed to attach for 24 hours in DMEM supplemented with 10% v/v fetal bovine serium (FBS). The medium was then replaced with DMEM-10 FBS containing ecdysoid drugs or solvent vehicle, and the cells were allowed to grow for 48 hours, at the end of which the cells were lysed and the amount of DNA in each well quantified through the CyQuant assay (Molecular Probes, Inc. Eugene, Oreg.).
Cellular toxicity of NSE-1 was tested in cell culture. NIH3T3-ER fibroblasts (Stratagene) were seeded into 96-well plates, allowed to attach for 24 hours in DMEM supplemented with 10% v/v fetal bovine serum (FBS). The medium was then replaced with DMEM-10% FBS containing ecdysoid drugs or solvent vehicle. Ethanol and DMSO were vehicle controls for ponasterone A and NSE-1, respectively. The cells were allowed to grow for 48 hours, at the end of which the cells were permeabilized and the amount of DNA in each well quantified with the CyQuant assay (Molecular Probes). […] The data are summarized in FIG. 1 (each measurement is the mean of 6 wells).

[4] = tested on: EGFP-Kir2.1 fusion protein under ecdysone promoter control (VgEcR/RXR); assay: Induction of reporter genes in primary rat anterior pituitary cells after adenovirus-mediated gene transfer; format: cell-based; conditions: 24 hours, single-cell microfluorimetry
Description: Anterior pituitary glands were removed from female Sprague-Dawley rats, enzymatically dissociated, and plated onto No. 1 polylysine-coated glass coverslips for culturing as previously described (Ho et al. 1995). The cells were doubly infected with one adenovirus (AdVgRXR) that allows constitutive expression of a modified ecdysone receptor (VgEcR) and the retinoid X receptor (RXR) and a second adenovirus (AdGFIRK) that places under ecdysone promoter control the expression of a fusion protein between EGFP and a potassium channel of the inward rectifier family (Kir2.1). For infection, the adenoviruses were applied at 200 pfu's per cell in infection medium for 3-5 hours. The cells were then allowed to recover for 24 hours before being treated with ecdysoids (ponasterone A, NSE-1) or solvent vehicle for 24 hours.
After induction, cells were then randomly chosen through a phase-contrast view and EGFP expression in each chosen cell was monitored by single-cell microfluorimetry. Because the EGFP-Kir2.1 fusion protein should be targeted to the plasma membrane, we expect its presence in the plasma membrane as well as in the Golgi-as the images in FIG. 5 indeed illustrate. A quantitative summary of the microfluorimetric data is shown in FIG. 6 (note break in y-axis scale; N shown at the base of each bar). […]

SMILES	activation of the ecdysone receptor (ecdysone receptor [1])	activity in inducing expression of reporter genes under ecdysone promoter control, relative to ponasterone A (ecdysone receptor [2])	concentrations required for activating the ecdysone system (ecdysone receptor [2])	signs of intoxication (mice)	solubility (Aqueous solubility) [µM]	induction of EGFP expression [3]	growth capacity of the cells (amount of DNA, CyQuant) (NIH3T3-ER fibroblasts; 10 μM)	growth capacity of the cells (amount of DNA, CyQuant) (NIH3T3-ER fibroblasts; 30 μM)	growth capacity of the cells (amount of DNA, CyQuant) (NIH3T3-ER fibroblasts; 100 μM)	induction of expression of the EGFP-Kir2.1 fusion protein [4]
CC(C)(O)CC[C@@H](O)[C@](C)(O)[C@H]1CC[C@@]2(O)C3=CC(=O)[C@@H]4C[C@@H](O)[C@@H](O)C[C@]4(C)[C@H]3CC[C@]12C [20-hydroxy-ecdysone]	moderately activated									
CCc1c(OC)cccc1C(=O)NN(C(=O)c1cc(C)cc(C)c1)C(C)(C)C [NSE-1, 1-(3,5-dimethylbenzoyl)-1-tert-butyl-2-(2-ethyl-3-methoxybenzoyl)hydrazine]		as active as ponasterone A	in the μM range	did not produce any signs of intoxication	47 (≈ 18 µg/mL)	efficacy of NSE-1 in inducing transgenes in cultured cell lines; also recorded: can induce EGFP reporter expression	Neither Ponasterone A at 10 μM, nor NSE-1 at 10, 30 or 100 μM significantly affected the growth capacity of the cells	Neither Ponasterone A at 10 μM, nor NSE-1 at 10, 30 or 100 μM significantly affected the growth capacity of the cells	Neither Ponasterone A at 10 μM, nor NSE-1 at 10, 30 or 100 μM significantly affected the growth capacity of the cells	can strongly induce expression
CC(C)CC[C@@H](O)[C@](C)(O)[C@H]1CC[C@@]2(O)C3=CC(=O)[C@@H]4C[C@@H](O)[C@@H](O)C[C@]4(C)[C@H]3CC[C@]12C [Ponasterone A, reference compound]	much more robustly activated		in the μM range				Neither Ponasterone A at 10 μM, nor NSE-1 at 10, 30 or 100 μM significantly affected the growth capacity of the cells			can strongly induce expression
CC(C)CC[C@@H](O)[C@](C)(O)[C@H]1CC[C@@]2(O)C3=CC(=O)[C@]4(O)C[C@@H](O)[C@@H](O)C[C@]4(C)[C@H]3[C@H](O)C[C@]12C [muristerone A]	much more robustly activated									
